Patent publication US20080176882A1, “SALTS OF 3-(3-AMINO-2-(R)-HYDROXY-PROPYL)-1-(4-FLUORO-PHENYL)-8-(8-METHYL-NAPHTHALEN-1-YLMETHYL)-1,3,8-TRIAZA-SPIRO[4.5]DECAN-4-ONE” (priority 2006, published 2008)
Structures can show the parent of a compound that is named as a salt.

Assay: DVS (Differential Vapor Sorption) measurements of hygroscopicity
Format: physicochemical
Details: salt forms of the compound of formula (Is)
Source text: In an embodiment, the present invention is directed to a hydrochloride salt of the compound of formula (Is). In another embodiment of the present invention, the hydrochloride salt of the compound of formula (Is) is mono-hydrochloride or di-hydrochloride salt of the compound of formula (Is). In another embodiment of the present invention, the mono-hydrochloride and di-hydrochloride salts of the compound of formula (Is) are crystalline. DVS measurements completed on the mono-hydrochloride and di-hydrochloride salts of the compound of formula (Is) indicate that both of these salt forms are hygroscopic.

Compound: Cc1cccc2cccc(CN3CCC4(CC3)C(=O)N(C[C@H](O)CN)CN4c3ccc(F)cc3)c12 [mono-hydrochloride, 3-(3-amino-2-(R)-hydroxy-propyl)-1-(4-fluoro-phenyl)-8-(8-methyl-naphthalen-1-ylmethyl)-1,3,8-triaza-spiro[4.5]decan-4-one]
- hygroscopicity by DVS measurements: hygroscopic
